The conditions of data set [1]: literature values, reference given; cited from earlier work. An excerpt:
Other assay additives can affect MIC values. […] Plasma protein binding has been implicated as a major factor limiting the active free concentration of many clinically important antibiotics ([37][–][42]).

A further data set concerns S. pyogenes ATCC 12344. The conditions noted are these: n = 2. As to the method: (§1) A positive control of a row of just the bacteria and a negative control of only the medium were included for every plate tested.
(§2) The compounds along with standard antibiotics were serially diluted 2-fold across the 96-well plates. […] A sample of each culture was then diluted 40-fold in fresh MH broth (in presence and absence of Tween) and incubated at 37°C for 2 to 3 h.

The subject of a further data set is MRSA. The conditions noted are these: literature value; cited from earlier work. An excerpt:
TABLE 1 Literature MIC values for tested antibiotics | column: MIC (µg/ml) (reference[s]) / MRSA

In another data set the test system is MRSA ATCC 43300. As to the method:
as §1, §2
For experiments in the presence of surfactant, 2% beractant (25 mg/ml) was added to the mid-log-phase cultures and mixed gently and added to all the 96-well plates. For experiments in the presence of serum, a mixture of 50% of human serum along with 50% MHB was prepared and used throughout the experiment.

A further data set deals with E. faecalis ATCC 29212. The experiment in a line: microbe, parasite or virus in culture. The conditions noted are these: n = 2. As to the method: as §1, §2
Data set [2] concerns S. pneumoniae ATCC 700677 (MDR). Description: microbe, parasite or virus in culture. The conditions noted are these: n = 2. As to the method: as §1, §2
The next data set relates to S. pneumoniae ATCC 33440. The experiment in a line: microbe, parasite or virus in culture. Particulars: n = 2. As to the method:
as §1, §2

Data set [3] relates to MSSA S. aureus ATCC 25923. The experiment in a line: microbe, parasite or virus in culture. Particulars: n = 2. As to the method:
as §1, §2

The test system of data set [4] is S. aureus GISA NRS 2; ATCC 700698. Description: microbe, parasite or virus in culture. Particulars: n = 2. As to the method: as §1, §2
[5] abbreviates: Corning flat NBS plate, MHB +0.002% T80, no further additive, n = 2.
The mark [6] stands for this setting: Corning flat PS plate, MHB −T80, no additive, n = 2.

≈ marks a conversion by molar mass, not a printed value. Like-named read-outs stand apart in the source and are kept apart here.

As for `CC(=O)NC[C@H]1CN(c2ccc(N3CCOCC3)c(F)c2)C(=O)O1` [linezolid], the protein binding in data set [1] is 31%.
Regarding `CN[C@H](CC(C)C)C(=O)N[C@H]1C(=O)N[C@@H](CC(N)=O)C(=O)N[C@H]2C(=O)N[C@H]3C(=O)N[C@H](C(=O)N[C@H](C(=O)O)c4cc(O)cc(O)c4-c4cc3ccc4O)[C@H](O)c3ccc(c(Cl)c3)Oc3cc2cc(c3O[C@@H]2O[C@H](CO)[C@@H](O)[C@H](O)[C@H]2O[C@H]2C[C@](C)(N)[C@H](O)[C@H](C)O2)Oc2ccc(cc2Cl)[C@H]1O` [Vancomycin, vancomycin], the MIC was 0.125 to 0.25 µg/mL with S. pyogenes ATCC 12344 (Corning NBS, MHB +T80); 0.125 to 0.25 µg/mL with S. pyogenes ATCC 12344 (Corning NBS, MHB -T80); 0.125 µg/mL (≈ 0.0863 µM) in the data set on S. pyogenes ATCC 12344 (Corning PS, MHB +T80); 0.125 µg/mL (≈ 0.0863 µM) against S. pyogenes ATCC 12344 (Corning PS, MHB -T80); 0.125 to 0.25 µg/mL against S. pyogenes ATCC 12344 (Corning TC, MHB +T80); 0.125 µg/mL (≈ 0.0863 µM) with S. pyogenes ATCC 12344 (Corning TC, MHB -T80). The MIC in the data set with MRSA ATCC 43300 (Corning NBS, MH + 2% LHB, 2% LS, n = 2) is 0.5 to 1 µg/mL; in the data set with MRSA ATCC 43300 (Corning NBS, MH + 2% LHB, 50% HS, n = 2), 0.5 to 1 µg/mL; in the data set on MRSA ATCC 43300 (Corning NBS, MH + 2% LHB, no additive, n = 2), 1 µg/mL; in the data set with MRSA ATCC 43300 (Corning NBS, MH + T80, 2% LS, n = 2), 0.25 to 0.5 µg/mL; in the data set with MRSA ATCC 43300 (Corning NBS, MH + T80, 50% HS, n = 2), 1 µg/mL; against MRSA ATCC 43300 (Corning NBS, MH, 2% LS, n = 2), 0.5 µg/mL (≈ 0.345 µM). Besides, the MIC in the data set with MRSA ATCC 43300 (Corning NBS, MH, 50% HS, n = 2) is 0.25 to 0.5 µg/mL; in the data set with MRSA ATCC 43300 (Corning PS, MH + 2% LHB, 2% LS, n = 2) it was 0.5 to 1 µg/mL; with MRSA ATCC 43300 (Corning PS, MH + 2% LHB, 50% HS, n = 2), 0.5 to 1 µg/mL; in the data set on MRSA ATCC 43300 (Corning PS, MH + 2% LHB, no additive, n = 2), 1 µg/mL; in the data set with MRSA ATCC 43300 (Corning PS, MH + T80, 2% LS, n = 2) it was 0.5 to 2 µg/mL; in the data set with MRSA ATCC 43300 (Corning PS, MH + T80, 50% HS, n = 2) it was 0.5 µg/mL. Moreover, the MIC was 0.5 to 1 µg/mL with MRSA ATCC 43300 (Corning PS, MH, 2% LS, n = 2); 0.25 to 0.5 µg/mL in the data set on MRSA ATCC 43300 (Corning PS, MH, 50% HS, n = 2); 0.5 to 1 µg/mL in the data set with MRSA ATCC 43300 (Corning TC, MH + 2% LHB, 2% LS, n = 2); 0.5 µg/mL in the data set on MRSA ATCC 43300 (Corning TC, MH + 2% LHB, 50% HS, n = 2); 0.5 µg/mL in the data set with MRSA ATCC 43300 (Corning TC, MH + 2% LHB, no additive, n = 2); 0.5 µg/mL with MRSA ATCC 43300 (Corning TC, MH + T80, 2% LS, n = 2). For the same compound, the MIC in the data set with MRSA ATCC 43300 (Corning TC, MH + T80, 50% HS, n = 2) was 0.5 to 1 µg/mL; in the data set on MRSA ATCC 43300 (Corning TC, MH, 2% LS, n = 2) it was 0.25 to 1 µg/mL; in the data set on MRSA ATCC 43300 (Corning TC, MH, 50% HS, n = 2), 0.25 to 0.5 µg/mL; against MRSA ATCC 43300 (setting [5]), 1 µg/mL (≈ 0.69 µM); with MRSA ATCC 43300 (Corning flat NBS plate, MHB −T80, no additive, n = 2), 0.5 µg/mL (≈ 0.345 µM); with MRSA ATCC 43300 (Corning flat PS plate, MHB +0.002% T80, no further additive, n = 2), 1 to 2 µg/mL. In addition, the MIC in the data set with MRSA ATCC 43300 (setting [6]) is 0.5 µg/mL (≈ 0.345 µM); against MRSA ATCC 43300 (Corning flat TC plate, MHB +0.002% T80, no further additive, n = 2) it was 1 µg/mL (≈ 0.69 µM); in the data set on MRSA ATCC 43300 (Corning flat TC plate, MHB −T80, no additive, n = 2), 0.5 µg/mL (≈ 0.345 µM); in the data set with MRSA ATCC 43300 (Nunc U TC plate, MHB +0.002% T80, n = 2) it was 1 µg/mL (≈ 0.69 µM); in the data set with MRSA ATCC 43300 (Nunc U TC plate, MHB −T80, n = 2), 0.5 µg/mL (≈ 0.345 µM); against MRSA ATCC 43300 (Nunc flat PS plate, MHB +0.002% T80, n = 2), 1 µg/mL (≈ 0.69 µM). Moreover, the MIC in the data set on MRSA ATCC 43300 (Nunc flat PS plate, MHB −T80, n = 2) was 1 µg/mL (≈ 0.69 µM); against MRSA ATCC 43300 (Nunc flat TC plate, MHB +0.002% T80, n = 2) it was 1 µg/mL (≈ 0.69 µM); against MRSA ATCC 43300 (Nunc flat TC plate, MHB −T80, n = 2), 1 to 2 µg/mL; in the data set with MRSA ATCC 43300 (Trek PS, MH + 2% LHB, 2% LS, n = 2) it was 0.25 to 0.5 µg/mL; with MRSA ATCC 43300 (Trek PS, MH + 2% LHB, 50% HS, n = 2) it was 0.5 µg/mL; in the data set on MRSA ATCC 43300 (Trek PS, MH + 2% LHB, no additive, n = 2), 0.25 µg/mL. The MIC in the data set with MRSA ATCC 43300 (Trek PS, MH + T80, 2% LS, n = 2) is 0.06 to 1 µg/mL; in the data set with MRSA ATCC 43300 (Trek PS, MH + T80, 50% HS, n = 2), 0.25 to 0.5 µg/mL; against MRSA ATCC 43300 (Trek PS, MH, 2% LS, n = 2), 0.03 µg/mL (≈ 0.0207 µM); with MRSA ATCC 43300 (Trek PS, MH, 50% HS, n = 2), 0.25 µg/mL (≈ 0.173 µM); against MRSA ATCC 43300 (Trek flat PS plate, MHB +0.002% T80, no further additive, n = 2), 1 µg/mL (≈ 0.69 µM); with MRSA ATCC 43300 (Trek flat PS plate, MHB −T80, no additive, n = 2), 0.5 to 1 µg/mL. Besides, the “MIC” value in the data set on MRSA ATCC 43300 (regardless of plate type or addition of T80) is “around 1 µg/ml”; against E. faecalis ATCC 29212 (Corning NBS, MHB +T80), 1 µg/mL (≈ 0.69 µM); against E. faecalis ATCC 29212 (Corning NBS, MHB -T80), 1 to 2 µg/mL; in the data set with E. faecalis ATCC 29212 (Corning PS, MHB +T80), 1 µg/mL (≈ 0.69 µM); in the data set on E. faecalis ATCC 29212 (Corning PS, MHB -T80) it was 1 µg/mL (≈ 0.69 µM); in the data set with E. faecalis ATCC 29212 (Corning TC, MHB +T80), 1 µg/mL (≈ 0.69 µM). The MIC is 1 to 2 µg/mL against E. faecalis ATCC 29212 (Corning TC, MHB -T80); 1 to 2 µg/mL in data set [2] (Corning NBS, MHB +T80); 0.5 µg/mL (≈ 0.345 µM) in data set [2] (Corning NBS, MHB -T80); 1 µg/mL (≈ 0.69 µM) in data set [2] (Corning PS, MHB +T80); 1 µg/mL (≈ 0.69 µM) in data set [2] (Corning PS, MHB -T80); 0.5 to 1 µg/mL in data set [2] (Corning TC, MHB +T80). The MIC in data set [2] (Corning TC, MHB -T80) is 1 µg/mL (≈ 0.69 µM); against S. pneumoniae ATCC 33440 (Corning NBS, MHB +T80), 0.5 to 1 µg/mL; in the data set on S. pneumoniae ATCC 33440 (Corning NBS, MHB -T80), 0.5 to 1 µg/mL; in the data set with S. pneumoniae ATCC 33440 (Corning PS, MHB +T80) it was 1 µg/mL (≈ 0.69 µM); with S. pneumoniae ATCC 33440 (Corning PS, MHB -T80), 1 µg/mL (≈ 0.69 µM); against S. pneumoniae ATCC 33440 (Corning TC, MHB +T80), 1 µg/mL (≈ 0.69 µM). Besides, the MIC is 0.5 to 1 µg/mL in the data set with S. pneumoniae ATCC 33440 (Corning TC, MHB -T80); 1 to 2 µg/mL in data set [3] (Corning NBS, MHB +T80); 0.5 to 1 µg/mL in [3] (Corning NBS, MHB -T80); 1 to 2 µg/mL in data set [3] (Corning PS, MHB +T80); 0.5 to 1 µg/mL in [3] (Corning PS, MHB -T80); 1 µg/mL (≈ 0.69 µM) in data set [3] (Corning TC, MHB +T80). For the same compound, the MIC in [3] (Corning TC, MHB -T80) was 0.5 to 1 µg/mL; in [4] (Corning NBS, MHB +T80) it was 0.5 to 1 µg/mL; in data set [4] (Corning NBS, MHB -T80), 0.5 µg/mL (≈ 0.345 µM); in data set [4] (Corning PS, MHB +T80) it was 0.5 to 1 µg/mL; in data set [4] (Corning PS, MHB -T80), 0.5 to 1 µg/mL; in [4] (Corning TC, MHB +T80), 0.5 µg/mL (≈ 0.345 µM). The compound also registered an MIC in data set [4] (Corning TC, MHB -T80) of 0.5 to 1 µg/mL. The “MIC (literature)” value with MRSA was 2 ([62]) µg/ml. Further, the protein binding in data set [1] is on record as 55%.
For `C[C@@H](O)[C@H]1C(=O)N2C(C(=O)O)=C(S[C@@H]3CN[C@H](C(=O)N(C)C)C3)[C@H](C)[C@H]12` [meropenem], the protein binding in data set [1] is 2%.
As to `CNC(=O)[C@H](CCCCNC(=O)[C@H]1NC(=O)[C@H]2NC(=O)[C@H](NC(=O)[C@@H]3NC(=O)[C@H](CC(N)=O)NC(=O)[C@H](NC(=O)[C@@H](CC(C)C)NC)[C@H](O)c4ccc(c(Cl)c4)Oc4cc3cc(c4O[C@@H]3O[C@H](CO)[C@@H](O)[C@H](O)[C@H]3O[C@H]3C[C@](C)(N)[C@H](O)[C@H](C)O3)Oc3ccc(cc3Cl)[C@H]2O)c2ccc(O)c(c2)-c2c(O)cc(O)cc21)NC(=O)[C@H](CCCCN)NC(=O)[C@H](CCCCN)NC(=O)[C@H](CCCCNC(=O)c1ccc(Oc2ccccc2)cc1)NC(=O)c1ccc(Oc2ccccc2)cc1` [MCC310], the values for the MIC against MRSA ATCC 43300 (setting [5]) and against MRSA ATCC 43300 (setting [6]) were 0.007 µg/mL (≈ 0.00296 µM) and 4 µg/mL (≈ 1.69 µM), respectively.
Turning to daptomycin, the protein binding in data set [1] is reported as 92%.
